Key:
green foxtail = test: Test Example 4: herbicidal effect by soil treatment (Table 19, symbol G); format: in vivo, green foxtail (Setaria viridis)
Outline: (§1)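 Applied as a water-diluted emulsion, the compound was sprayed onto soil covering newly sown seeds. Evaluation came three weeks after application, in a greenhouse held at 25° C. to 30° C.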

wild oat = test: Test Example 4: herbicidal effect by soil treatment (Table 19, symbol I); format: in vivo, wild oat (Avena fatua)
Outline: as §1

rice flat sedge = test: Test Example 3: herbicidal effect by foliage application, Wagner pot (Table 18, symbol E); format: in vivo, rice flat sedge (Cyperus iria)
Outline: (§2)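 Plants were sown in alluvial soil held under 0.1–0.5 cm standing water and grown 14 days in a greenhouse at 25–30 °C. An emulsifiable formulation, water-diluted to the set dose, was then sprayed onto the foliage, and effects were scored three weeks later using previously defined criteria.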

redroot pigweed = test: Test Example 4: herbicidal effect by soil treatment (Table 19, symbol N); format: in vivo, redroot pigweed (Amaranthus retroflexus)
Outline: as §1

Italian ryegrass = test: Test Example 4: herbicidal effect by soil treatment (Table 19, symbol K); format: in vivo, Italian ryegrass (Lolium multiflorum)
Outline: as §1

chickweed = test: Test Example 4: herbicidal effect by soil treatment (Table 19, symbol P); format: in vivo, common chickweed (Stellaria media)
Outline: as §1

lambsquarters = test: Test Example 4: herbicidal effect by soil treatment (Table 19, symbol O); format: in vivo, lambsquarters (Chenopodium album)
Outline: as §1

blackgrass = test: Test Example 4: herbicidal effect by soil treatment (Table 19, symbol J); format: in vivo, blackgrass (Alopecurus myosuroides)
Outline: as §1

persian speedwell = test: Test Example 4: herbicidal effect by soil treatment (Table 19, symbol R); format: in vivo, Persian speedwell (Veronica persica)
Outline: as §1

velvetleaf = test: Test Example 4: herbicidal effect by soil treatment (Table 19, symbol M); format: in vivo, velvetleaf (Abutilon theophrasti)
Outline: as §1

windgrass = test: Test Example 4: herbicidal effect by soil treatment (Table 19, symbol L); format: in vivo, windgrass (Apera spica-venti)
Outline: as §1

barnyard grass [1] = test: Test Example 3: herbicidal effect by foliage application, Wagner pot (Table 18, symbol H); format: in vivo, barnyard grass (Echinochloa crus-galli)
Outline: as §2

southern crabgrass = test: Test Example 4: herbicidal effect by soil treatment (Table 19, symbol F); format: in vivo, southern crabgrass (Digitaria ciliaris)
Outline: as §1

Chinese sprangletop = test: Test Example 3: herbicidal effect by foliage application, Wagner pot (Table 18, symbol D); format: in vivo, chinese sprangletop (Leptochloa chinensis)
Outline: as §2

barnyard grass [2] = test: Test Example 4: herbicidal effect by soil treatment (Table 19, symbol H); format: in vivo, barnyard grass (Echinochloa crus-galli)
Outline: as §1

[3] = amount of applied herbicide 84 g/ha
[4] = amount of applied herbicide 320 g/ha

Row | Structure (SMILES) | herbicidal effect, G: green foxtail (green foxtail; [4]) | herbicidal effect, I: wild oat (wild oat; [4]) | herbicidal effect on E: rice flat sedge (rice flat sedge; [4]) | herbicidal effect, N: redroot pigweed (redroot pigweed; [4]) | herbicidal effect, K: Italian ryegrass (Italian ryegrass; [4]) | herbicidal effect, P: chickweed (chickweed; [4]) | herbicidal effect, O: lambsquarters (lambsquarters; [4]) | herbicidal effect, J: blackgrass (blackgrass; [4]) | herbicidal effect, R: persian speedwell (persian speedwell; [4]) | herbicidal effect, M: velvetleaf (velvetleaf; [4]) | herbicidal effect, L: windgrass (windgrass; [4]) | herbicidal effect on H: barnyard grass (barnyard grass [1]; [4]) | herbicidal effect, F: southern crabgrass (southern crabgrass; [4]) | herbicidal effect on D: Chinese sprangletop (Chinese sprangletop; [4]) | herbicidal effect, H: barnyard grass (barnyard grass [2]; [4]) | further results
1 | Cc1nn(C)c(=O)c(-c2c(-c3c(F)cc(F)cc3F)sc3ccc(F)cc23)c1O [2-372] | – | – | – | – | – | – | – | – | – | – | – | – | – | – | – | herbicidal effect, G: green foxtail (green foxtail; [3]): 0 (Herbicidal rate of 5% or less (almost no effect)); herbicidal effect, I: wild oat (wild oat; [3]): 0 (Herbicidal rate of 5% or less (almost no effect)); herbicidal effect on E: rice flat sedge (rice flat sedge; [3]): 3 (Herbicidal rate of 40% or more and less than 70%); herbicidal effect, N: redroot pigweed (redroot pigweed; [3]): 0 (Herbicidal rate of 5% or less (almost no effect)); herbicidal effect, K: Italian ryegrass (Italian ryegrass; [3]): 2 (Herbicidal rate of 20% or more and less than 40%); herbicidal effect, P: chickweed (chickweed; [3]): 0 (Herbicidal rate of 5% or less (almost no effect)); herbicidal effect, O: lambsquarters (lambsquarters; [3]): 0 (Herbicidal rate of 5% or less (almost no effect)); herbicidal effect, J: blackgrass (blackgrass; [3]): 0 (Herbicidal rate of 5% or less (almost no effect)); herbicidal effect, R: persian speedwell (persian speedwell; [3]): 0 (Herbicidal rate of 5% or less (almost no effect)); herbicidal effect, M: velvetleaf (velvetleaf; [3]): 0 (Herbicidal rate of 5% or less (almost no effect)); herbicidal effect, L: windgrass (windgrass; [3]): 0 (Herbicidal rate of 5% or less (almost no effect)); herbicidal effect on H: barnyard grass (barnyard grass [1]; [3]): 4 (Herbicidal rate of 70% or more and less than 90%); herbicidal effect, F: southern crabgrass (southern crabgrass; [3]): 0 (Herbicidal rate of 5% or less (almost no effect)); herbicidal effect on D: Chinese sprangletop (Chinese sprangletop; [3]): 4 (Herbicidal rate of 70% or more and less than 90%); herbicidal effect, H: barnyard grass (barnyard grass [2]; [3]): 0 (Herbicidal rate of 5% or less (almost no effect))
2 | CCCC(=O)Oc1c(C)nn(C)c(=O)c1-c1c(-c2cnccc2F)sc2ccc(F)cc12 [2-384] | 4 (Herbicidal rate of 70% or more and less than 90%) | 1 (Herbicidal rate of 5% or more and less than 20%) | 3 (Herbicidal rate of 40% or more and less than 70%) | 4 (Herbicidal rate of 70% or more and less than 90%) | 4 (Herbicidal rate of 70% or more and less than 90%) | 4 (Herbicidal rate of 70% or more and less than 90%) | 3 (Herbicidal rate of 40% or more and less than 70%) | 0 (Herbicidal rate of 5% or less (almost no effect)) | 4 (Herbicidal rate of 70% or more and less than 90%) | 2 (Herbicidal rate of 20% or more and less than 40%) | 0 (Herbicidal rate of 5% or less (almost no effect)) | 3 (Herbicidal rate of 40% or more and less than 70%) | 3 (Herbicidal rate of 40% or more and less than 70%) | 3 (Herbicidal rate of 40% or more and less than 70%) | 3 (Herbicidal rate of 40% or more and less than 70%) | –
3 | Cc1nn(C)c(=O)c(-c2c(-c3cnccc3Cl)sc3ccc(F)cc23)c1O [2-385] | 0 (Herbicidal rate of 5% or less (almost no effect)) | 3 (Herbicidal rate of 40% or more and less than 70%) | 5 (Herbicidal rate of 90% or more (almost completely withered)) | 3 (Herbicidal rate of 40% or more and less than 70%) | 4 (Herbicidal rate of 70% or more and less than 90%) | 3 (Herbicidal rate of 40% or more and less than 70%) | 4 (Herbicidal rate of 70% or more and less than 90%) | 0 (Herbicidal rate of 5% or less (almost no effect)) | 5 (Herbicidal rate of 90% or more (almost completely withered)) | 2 (Herbicidal rate of 20% or more and less than 40%) | 1 (Herbicidal rate of 5% or more and less than 20%) | 5 (Herbicidal rate of 90% or more (almost completely withered)) | 0 (Herbicidal rate of 5% or less (almost no effect)) | 5 (Herbicidal rate of 90% or more (almost completely withered)) | 0 (Herbicidal rate of 5% or less (almost no effect)) | –

From US20230085307A1, “PYRIDAZINONE COMPOUND AND HERBICIDE” (NISSAN CHEMICAL CORPORATION, priority 2019, published 2023)
